Marks after values point to notes of the source that are not given here.
Experiments:
[1] = test system: Ovariectomized Primates; assay: Biomechanical measures of cortical bone of the humerus midshaft; assay type: in vivo, Macaca fascicularis; conditions: for Fy / S (stiffness) / t (average cortical thickness): humerus midshaft, mean ± SEM
Text: Biomechanical tests were done on lumbar vertebrae L-3 to L-4, the femur neck, humerus midshaft, and on a cortical bone specimen machined from the femur diaphysis (measures defined in Table 2). Conventional static and dynamic histomorphometry were done (measures described in Table 6) on the humerus midshaft, lumbar vertebra L-2, femoral neck, femur midshaft, the radius midshaft and distal radius. Initial statistical analyses compared all groups to vehicle-treated ovariectomized controls. The data is suitable for additional exploratory analyses to examine dose dependency, effects of withdrawal, interactions between outcomes, and changes in time by methods known to those of skill in the art. All assays were conducted and determined by methods known in the art.

[2] = test system: ovariectomized cynomolgus primates; assay: Bone mass by DXA and pQCT in the primate study; assay type: in vivo, Macaca fascicularis
Text: (§1) All animals were euthanized after 18 months.

[3] = test system: ovariectomized cynomolgus primates; assay: Iliac biopsy histomorphometry (cancellous bone); assay type: in vivo, Macaca fascicularis
Text: as §1

[4] = test system: post-menopausal women; assay: Clinical trial: number of non-vertebral fractures; assay type: in vivo, Humans
[5] = test system: post-menopausal women; assay: Clinical trial: BMC, BMD and bone area by dual energy absorptiometry (DEXA); assay type: in vivo, Humans
Experimental: The effect of PTH on bone mineral content (BMC), bone mineral density (BMD), and bone area were determined by dual energy absorptiometry (DEXA), and the results are reported in Tables 12-14. PTH administration caused apparent increases in BMC at the patient's lumbar spine, femur and hip, wrist, and throughout the patient's whole body (Table 12). Treatment with PTH caused significant increases in the patient's BMD at the lumbar spine, femur and hip (Table 13). The increases at the lumbar spine, femur and hip were statistically significant with p<0.001 (Table 13). […] The increases were statistically significant for the lumbar spine and hip neck (Table 14).

[6] = compared to ovariectomized controls
[7] = PTH1-W: withdrawal after 1 µg/kg for 12 months
[8] = PTH5-W: withdrawal after 5 µg/kg for 12 months

teriparatide [rhPTH(1-34)]
measures in the cortical diaphysis of the humerus midshaft [1, 6]: did not alter | Fy [1, 7]: 689 ± 23 N | S (stiffness) [1, 7]: 573 ± 20 N/mm | t (average cortical thickness) [1, 7]: 1.66 ± 0.04 mm | Fy ([1]; PTH1: 1 µg/kg for 18 months): 654 ± 23 N | S (stiffness) ([1]; PTH1: 1 µg/kg for 18 months): 544 ± 23 N/mm | t (average cortical thickness) ([1]; PTH1: 1 µg/kg for 18 months): 1.68 ± 0.03 mm | Fy [1, 8]: 707 ± 24 N | S (stiffness) [1, 8]: 573 ± 24 N/mm | t (average cortical thickness) [1, 8]: 1.72 ± 0.05 mm | Fy ([1]; PTH5: 5 µg/kg for 18 months): 680 ± 15^a N | S (stiffness) ([1]; PTH5: 5 µg/kg for 18 months): 548 ± 18 N/mm | t (average cortical thickness) ([1]; PTH5: 5 µg/kg for 18 months): 1.80 ± 0.04^a mm | increase of whole body bone mineral content (BMC) compared to baseline ([2]; 18 months, DXA): up to 6% | overall skeletal bone mass, expressed as total body BMC ([2]; Fig. 1): increased significantly | proximal tibia BMC and BMD [2, 6]: increased BMC and BMD | BMD of the midshaft or distal radius ([2]; pQCT): did not alter | increase of cross-sectional area of the midshaft ([2]; radius midshaft, PTH5 group): 7% | mineralization, activation frequency, or remodeling periods ([3]; iliac biopsy): did not affect | cancellous bone area ([3]; iliac biopsy at 15 months, compared to ovariectomized): increased cancellous bone area | number of non-vertebral fractures, Ankle ([4]; PTH-20 (N=541)): 2 | number of non-vertebral fractures, Foot ([4]; PTH-20 (N=541)): 1 | number of non-vertebral fractures, Hip ([4]; PTH-20 (N=541)): 2 | number of non-vertebral fractures, Humerus ([4]; PTH-20 (N=541)): 4 | number of non-vertebral fractures, Other ([4]; PTH-20 (N=541)): 14 | number of non-vertebral fractures, Pelvis ([4]; PTH-20 (N=541)): 1 | number of non-vertebral fractures, Radius ([4]; PTH-20 (N=541)): 7 | number of non-vertebral fractures, Ribs ([4]; PTH-20 (N=541)): 5 | number of non-vertebral fractures, Total ([4]; PTH-20 (N=541)): 34 | number of non-vertebral fractures, Total w/o "Other" ([4]; PTH-20 (N=541)): 21 | number of non-vertebral fractures, Ankle ([4]; PTH-40 (N=552)): 2 | number of non-vertebral fractures, Foot ([4]; PTH-40 (N=552)): 4 | number of non-vertebral fractures, Hip ([4]; PTH-40 (N=552)): 3 | number of non-vertebral fractures, Humerus ([4]; PTH-40 (N=552)): 3 | number of non-vertebral fractures, Other ([4]; PTH-40 (N=552)): 9 | number of non-vertebral fractures, Pelvis ([4]; PTH-40 (N=552)): 0 | number of non-vertebral fractures, Radius ([4]; PTH-40 (N=552)): 10 | number of non-vertebral fractures, Ribs ([4]; PTH-40 (N=552)): 5 | number of non-vertebral fractures, Total ([4]; PTH-40 (N=552)): 32 | number of non-vertebral fractures, Total w/o "Other" ([4]; PTH-40 (N=552)): 24 | bone area, endpoint % change (SD) from baseline, Femur/Hip Intertrochanter ([5]; PTH-20): 1.01 (4.99) % | bone area, endpoint % change (SD) from baseline, Femur/Hip Neck ([5]; PTH-20): 0.27 (4.91) % | bone area, endpoint % change (SD) from baseline, Femur/Hip Total ([5]; PTH-20): 0.84 (3.16) % | bone area, endpoint % change (SD) from baseline, Femur/Hip Trochanter ([5]; PTH-20): 1.99 (12.16) % | bone area, endpoint % change (SD) from baseline, Femur/Hip Ward's triangle ([5]; PTH-20): 1.13 (7.34) % | bone area, endpoint % change (SD) from baseline, Lumbar spine ([5]; PTH-20): 2.52 (3.52) % | bone area, endpoint % change (SD) from baseline, Wrist 1/3 radius ([5]; PTH-20): 0.52 (3.40) % | bone area, endpoint % change (SD) from baseline, Wrist Ultradistal ([5]; PTH-20): -0.25 (6.00) % | bone mineral content, endpoint % change (SD) from baseline, Femur/Hip Intertrochanter ([5]; PTH-20): 3.59 (7.32) % | bone mineral content, endpoint % change (SD) from baseline, Femur/Hip Neck ([5]; PTH-20): 2.99 (7.26) % | bone mineral content, endpoint % change (SD) from baseline, Femur/Hip Total ([5]; PTH-20): 3.50 (6.26) % | bone mineral content, endpoint % change (SD) from baseline, Femur/Hip Trochanter ([5]; PTH-20): 5.68 (15.58) % | bone mineral content, endpoint % change (SD) from baseline, Femur/Hip Ward's triangle ([5]; PTH-20): 5.36 (14.78) % | bone mineral content, endpoint % change (SD) from baseline, Lumbar spine ([5]; PTH-20): 11.85 (8.83) % | bone mineral content, endpoint % change (SD) from baseline, Whole body ([5]; PTH-20): 1.30 (4.48) % | bone mineral content, endpoint % change (SD) from baseline, Wrist 1/3 radius ([5]; PTH-20): -1.37 (4.51) % | bone mineral content, endpoint % change (SD) from baseline, Wrist Ultradistal ([5]; PTH-20): -0.25 (6.53) % | bone mineral density, endpoint % change (SD) from baseline, Femur/Hip Intertrochanter ([5]; PTH-20): 2.62 (5.52) % | bone mineral density, endpoint % change (SD) from baseline, Femur/Hip Neck ([5]; PTH-20): 2.79 (5.72) % | bone mineral density, endpoint % change (SD) from baseline, Femur/Hip Total ([5]; PTH-20): 2.58 (4.88) % | bone mineral density, endpoint % change (SD) from baseline, Femur/Hip Trochanter ([5]; PTH-20): 3.50 (6.81) % | bone mineral density, endpoint % change (SD) from baseline, Femur/Hip Ward's triangle ([5]; PTH-20): 4.19 (11.93) % | bone mineral density, endpoint % change (SD) from baseline, Lumbar spine ([5]; PTH-20): 9.70 (7.41) % | bone mineral density, endpoint % change (SD) from baseline, Wrist 1/3 radius ([5]; PTH-20): -1.94 (4.07) % | bone mineral density, endpoint % change (SD) from baseline, Wrist Ultradistal ([5]; PTH-20): -0.05 (7.14) % | bone area, endpoint % change (SD) from baseline, Femur/Hip Intertrochanter ([5]; PTH-40): 1.01 (4.89) % | bone area, endpoint % change (SD) from baseline, Femur/Hip Neck ([5]; PTH-40): 0.81 (5.56) % | bone area, endpoint % change (SD) from baseline, Femur/Hip Total ([5]; PTH-40): 1.05 (2.98) % | bone area, endpoint % change (SD) from baseline, Femur/Hip Trochanter ([5]; PTH-40): 1.92 (11.30) % | bone area, endpoint % change (SD) from baseline, Femur/Hip Ward's triangle ([5]; PTH-40): 0.99 (8.06) % | bone area, endpoint % change (SD) from baseline, Lumbar spine ([5]; PTH-40): 3.34 (3.72) % | bone area, endpoint % change (SD) from baseline, Wrist 1/3 radius ([5]; PTH-40): 0.01 (4.42) % | bone area, endpoint % change (SD) from baseline, Wrist Ultradistal ([5]; PTH-40): -0.39 (4.80) % | bone mineral content, endpoint % change (SD) from baseline, Femur/Hip Intertrochanter ([5]; PTH-40): 4.99 (7.79) % | bone mineral content, endpoint % change (SD) from baseline, Femur/Hip Neck ([5]; PTH-40): 5.80 (8.71) % | bone mineral content, endpoint % change (SD) from baseline, Femur/Hip Total ([5]; PTH-40): 4.78 (6.70) % | bone mineral content, endpoint % change (SD) from baseline, Femur/Hip Trochanter ([5]; PTH-40): 6.53 (15.33) % | bone mineral content, endpoint % change (SD) from baseline, Femur/Hip Ward's triangle ([5]; PTH-40): 8.86 (17.02) % | bone mineral content, endpoint % change (SD) from baseline, Lumbar spine ([5]; PTH-40): 16.62 (11.1) % | bone mineral content, endpoint % change (SD) from baseline, Whole body ([5]; PTH-40): 2.28 (5.44) % | bone mineral content, endpoint % change (SD) from baseline, Wrist 1/3 radius ([5]; PTH-40): -3.04 (6.09) % | bone mineral content, endpoint % change (SD) from baseline, Wrist Ultradistal ([5]; PTH-40): -1.88 (7.97) % | bone mineral density, endpoint % change (SD) from baseline, Femur/Hip Intertrochanter ([5]; PTH-40): 3.98 (5.96) % | bone mineral density, endpoint % change (SD) from baseline, Femur/Hip Neck ([5]; PTH-40): 5.06 (6.73) % | bone mineral density, endpoint % change (SD) from baseline, Femur/Hip Total ([5]; PTH-40): 3.60 (5.42) % | bone mineral density, endpoint % change (SD) from baseline, Femur/Hip Trochanter ([5]; PTH-40): 4.40 (7.45) % | bone mineral density, endpoint % change (SD) from baseline, Femur/Hip Ward's triangle ([5]; PTH-40): 7.85 (13.24) % | bone mineral density, endpoint % change (SD) from baseline, Lumbar spine ([5]; PTH-40): 13.7 (9.69) % | bone mineral density, endpoint % change (SD) from baseline, Wrist 1/3 radius ([5]; PTH-40): -3.17 (4.62) % | bone mineral density, endpoint % change (SD) from baseline, Wrist Ultradistal ([5]; PTH-40): -1.76 (7.20) %
